Data published in patent US20070254938A1, “Preventive or Therapeutic Agent for Vascular Intimal Proliferative Disease” (priority 2004, published 2007).

Assays:
[1] = Fasting plasma glucose levels in alloxan-induced diabetic rabbits; assay type: in vivo, Japanese white rabbits; conditions: 3 mg/kg orally once a day
Experimental: (§1) Diabetic model animals made by administrating alloxan (50 mg/kg) into Japanese white rabbits (body weight: 2.0 to 3.3 kg) were divided into 2 groups; one was a mitiglinide-treated group (n=5) in which mitiglinide calcium hydrate (3 mg/kg) suspended in 0.5% carboxymethylcellulose was administered orally once a day before feeding for 6 weeks from the next day of alloxan-administration to the day before experimental termination, and the other was the control group (n=4) in which 0.5% carboxymethylcellulose was administered in the same way. Two weeks after the alloxan-administration, the endothelium of the right common carotid artery was scraped using a balloon catheter, and then, the incision on the vessel wall was sutured with care not to cause stenosis. The left common carotid artery was used as a side of Sham-operation (the normal group). Four (4) weeks after the operation of scraping endothelium of a blood vessel, the bilateral common carotid arteries were removed, and the intimal, medial and luminal areas of the sections of the arteries were measured using a morphometric analyzer. Fasting plasma glucose levels were measured 2 weeks after the alloxan-administration (on the day of scraping the endothelium) and 6 weeks after the alloxan-administration (on the day of removing the arteries.

[2] = system: intimal hyperplasia of the common carotid artery; test: Intimal hyperplasia of a blood vessel caused by scraping endothelium of common carotid artery in alloxan-induced diabetic rabbits; assay type: in vivo, Japanese white rabbits; conditions: 3 mg/kg orally once a day for 6 weeks; arteries removed 4 weeks after scraping endothelium; compared to the control group; FIG. 1
Experimental: Effect on Intimal Hyperplasia of a Blood vessel Caused by Scraping Endothelium of Common Carotid Artery in Rabbits
as §1, with “The left common carotid artery was used as a side of Sham-operation (the normal group).” left out

O=C(O)[C@H](CC(=O)N1C[C@H]2CCCC[C@H]2C1)Cc1ccccc1 [mitiglinide calcium hydrate, bis{(2S)-2-benzyl-3-(cis-hexahydro-2-isoindolinylcarbonyl)-propionic acid}calcium dihydrate]
influence on fasting plasma glucose level ([1]; 2 weeks after alloxan-administration, FIG. 2): no influence | influence on fasting plasma glucose level ([1]; 6 weeks after alloxan-administration, FIG. 3): no influence | inhibitory effect on intimal hyperplasia (ratio of intimal area to medial area) [2]: significant inhibitory effect
